Measurements reported in patent publication US11129816B2, “Ring-fused thiazolino 2-pyridones in combination with a drug against tuberculosis” (QURETECH BIO AB, priority 2017, dated 2021).

The compounds below were run on Mycobacterium tuberculosis Erdman (assay: Treatment of Mycobacterium tuberculosis Erdman liquid culture with Q203 in the absence or presence of Example 1 (CFU count and ODλ600)). Conditions: Sauton's media; Example 1 25 μM or Q203 0.4 μM alone; day 15; compared to DMSO control.
Assay type: cell-based

With `O=C(O)[C@@H]1CSc2c(C3CC3)c(Cc3cccc4ccccc34)cc(=O)n21` [Example 1, (3R)-7-Cyclopropyl-6-[(1-naphthyl)methyl]-4-oxo-1-thia-3a-aza-3-indancarboxylic acid] the “ODλ600 value (FIG. 3b)” value was “decrease the ODλ600 value considerably”.
In the case of `CCc1nc2ccc(Cl)cn2c1C(=O)NCc1ccc(N2CCC(c3ccc(OC(F)(F)F)cc3)CC2)cc1` [Example Q203, 6-chloro-2-ethyl-N-[(4-{4-[4-(trifluoromethoxy)phenyl]piperidin-1-yl}phenyl)methyl]imidazo[1,2-a]pyridine-3-carboxamide, reference compound], the “ODλ600 value (FIG. 3b)” value is reported as “decrease the ODλ600 value considerably”.

These compounds were tested on Mtb (assay: Microplate Alamar Blue Assay (MABA)). Conditions: Mycobacterium tuberculosis.
Assay type: cell-based
Protocol: The IC50 value was measured for the compounds 55-65. The measurement was made in accordance with the Microplate Alamar Blue Assay (MABA) as described by Franzblau, S. G. et al in Tuberculosis (Edinb). 92, 453-88 (2012: The MABA utilizes the dye resazurin, which is dark blue and nonfluorescent in its oxidized form but becomes pink and fluorescent when reduced to resorufin as a result of cellular metabolism. The MABA is commonly used to evaluate the efficacy of compounds in restraining Mtb growth, but also serves as an assay for aerobic respiration. The degree of the color change was monitored and quantified, and performing this assay with a range of compound concentrations allowed for calculating IC50 values for compounds. The IC50 value is defined as the concentration of the compound that inhibits the MABA color change by 50%.

In order of rising IC50:
1. O=C(O)C1CSc2c(C3CC3)c(-c3cc(-c4cccc5ccccc45)no3)cc(=O)n21 (stereo not shown) [Example 56, 1H-imidazol-1-ium 8-cyclopropyl-7-(3-(naphthalen-1-yl)isoxazol-5-yl)-5-oxo-3,5-dihydro-2H-thiazolo[3,2-a]pyridine-3-carboxylate]  2.53 µM
2. O=C(O)C1CSc2c(C3CC3)c(-c3cc(-c4cccc(C(F)(F)F)c4)no3)cc(=O)n21 (stereo not shown) [Example 57, 1H-imidazol-1-ium 8-cyclopropyl-5-oxo-7-(3-(3-(trifluoromethyl)phenyl)isoxazol-5-yl)-3,5-dihydro-2H-thiazolo[3,2-a]pyridine-3-carboxylate]  2.53 µM
3. O=C(O)C1CSc2c(-c3cc(-c4ccccc4)no3)c(Cc3cccc4ccccc34)c(Br)c(=O)n21 (stereo not shown) [Example 60, 1H-imidazol-1-ium 6-bromo-7-(naphthalen-1-ylmethyl)-5-oxo-8-(3-phenylisoxazol-5-yl)-3,5-dihydro-2H-thiazolo[3,2-a]pyridine-3-carboxylate]  4.51 µM
4. O=C(O)C1CSc2c(C3CC3)c(Cc3cccc4ccccc34)cc(=O)n21 (stereo not shown) [Example 65, 1H-imidazol-1-ium 8-cyclopropyl-7-(naphthalen-1-ylmethyl)-5-oxo-3,5-dihydro-2H-thiazolo[3,2-a]pyridine-3-carboxylate]  8.47 µM
5. O=C(O)C1CSc2c(-c3cc(-c4ccccc4)no3)c(Cc3cccc4ccccc34)cc(=O)n21 (stereo not shown) [Example 63, 1H-imidazol-1-ium 7-(naphthalen-1-ylmethyl)-5-oxo-8-(3-phenylisoxazol-5-yl)-3,5-dihydro-2H-thiazolo[3,2-a]pyridine-3-carboxylate]  12.7 µM
6. O=C(O)C1CSc2c(-c3cc(-c4cccc5ccccc45)no3)c(Cc3cccc4ccccc34)cc(=O)n21 (stereo not shown) [Example 64, 1H-imidazol-1-ium 8-(3-(naphthalen-1-yl)isoxazol-5-yl)-7-(naphthalen-1-ylmethyl)-5-oxo-3,5-dihydro-2H-thiazolo[3,2-a]pyridine-3-carboxylate]  14.4 µM
7. O=C(O)C1CSc2c(C3CC3)c(-c3cc(-c4ccccc4)no3)cc(=O)n21 (stereo not shown) [Example 59, 1H-imidazol-1-ium 8-cyclopropyl-5-oxo-7-(3-phenylisoxazol-5-yl)-3,5-dihydro-2H-thiazolo[3,2-a]pyridine-3-carboxylate]  15.6 µM
8. O=C(O)C1CSc2c(C3CC3)c(-c3cc(-c4cccs4)no3)cc(=O)n21 (stereo not shown) [Example 58, 1H-imidazol-1-ium 8-cyclopropyl-5-oxo-7-(3-(thiophen-2-yl)isoxazol-5-yl)-3,5-dihydro-2H-thiazolo[3,2-a]pyridine-3-carboxylate]  28.9 µM
9. O=C(O)C1CSc2c(C3CC3)c(-c3nc4ccccc4o3)cc(=O)n21 (stereo not shown) [Example 55, 1H-imidazol-1-ium 7-(benzo[d]oxazol-2-yl)-8-cyclopropyl-5-oxo-3,5-dihydro-2H-thiazolo[3,2-a]pyridine-3-carboxylate]  39.1 µM
10. C#Cc1c(Cc2cccc3ccccc23)cc(=O)n2c1SCC2C(=O)O (stereo not shown) [Example 62, 1H-imidazol-1-ium 8-ethynyl-7-(naphthalen-1-ylmethyl)-5-oxo-3,5-dihydro-2H-thiazolo[3,2-a]pyridine-3-carboxylate]  53.5 µM
11. O=C(O)C1CSc2c(C3CC(c4ccccc4)=NO3)c(Cc3cccc4ccccc34)cc(=O)n21 (stereo not shown) [Example 61, 1H-imidazol-1-ium 7-(naphthalen-1-ylmethyl)-5-oxo-8-(3-phenyl-4,5-dihydroisoxazol-5-yl)-3,5-dihydro-2H-thiazolo[3,2-a]pyridine-3-carboxylate]  82.7 µM
